From ChEMBL document CHEMBL4428097, “Gallic acid induces apoptosis in EGFR-mutant non-small cell lung cancers by accelerating EGFR turnover” (Bioorg Med Chem Lett, 2016)
Active and inactive are the calls of the source. The rule behind the calls is not given here.

Columns and labels:
NCI-H1650 [1] = assay: Inhibition of EGFR mutant-mediated AKT phosphorylation in human NCI-H1650 cells harboring EGFR-mutant at 30 and 60 uM measured after 24 hrs by immunoblotting analysis; format: cell-based
NCI-H1975 [2] = assay: Antiproliferative activity against human NCI-H1975 cells harboring EGFR-mutant assessed as cell viability measured after 24 hrs; format: functional, cell-based
NCI-H1650 [3] = assay: Antiproliferative activity against human NCI-H1650 cells harboring EGFR-mutant assessed as cell viability measured after 24 hrs; format: functional, cell-based
A549 [4] = assay: Antiproliferative activity against human A549 cells harboring wild-type EGFR assessed as cell viability at 30 and 60 uM measured after 24 hrs; format: functional, cell-based
NCI-H460 [5] = assay: Antiproliferative activity against human NCI-H460 cells harboring wild-type EGFR assessed as cell viability at 30 and 60 uM measured after 24 hrs; format: functional, cell-based
NCI-H1975 [6] = assay: Induction of apoptosis in human NCI-H1975 harboring EGFR-mutant cells assessed as cell death measured after 24 hrs by Annexin-V/PI staining based analysis; format: functional
NCI-H1650 [7] = assay: Induction of apoptosis in human NCI-H1650 cells harboring EGFR-mutant assessed as cell death measured after 24 hrs by Annexin-V/PI staining based analysis; format: functional
A549 [8] = assay: Induction of apoptosis in human A549 cells harboring wild-type EGFR assessed as cell death at 30 and 60 uM measured after 24 hrs by Annexin-V/PI staining based analysis; format: functional
NCI-H460 [9] = assay: Induction of apoptosis in human NCI-H460 cells harboring wild-type EGFR assessed as cell death at 30 and 60 uM measured after 24 hrs by Annexin-V/PI staining based analysis; format: functional
NCI-H1975 [10] = assay: Increase in cleaved caspase3 level in human NCI-H1975 cells harboring EGFR-mutant at 30 and 60 uM by immunoblotting analysis; format: functional, cell-based
NCI-H1650 [11] = assay: Increase in cleaved caspase3 level in human NCI-H1650 cells harboring EGFR-mutant at 30 and 60 uM by immunoblotting analysis; format: functional, cell-based
A549 [12] = assay: Increase in cleaved caspase3 level in human A549 cells harboring wild-type EGFR at 30 and 60 uM by immunoblotting analysis; format: functional, cell-based
NCI-H460 [13] = assay: Increase in cleaved caspase3 level in human NCI-H460 cells harboring wild-type EGFR at 30 and 60 uM by immunoblotting analysis; format: functional, cell-based
NCI-H1975 [14] = assay: Increase in PARP level in human NCI-H1975 cells harboring EGFR-mutant at 30 and 60 uM by immunoblotting analysis; format: functional, cell-based
NCI-H1650 [15] = assay: Increase in PARP level in human NCI-H1650 cells harboring EGFR-mutant at 30 and 60 uM by immunoblotting analysis; format: functional, cell-based
A549 [16] = assay: Increase in PARP level in human A549 cells harboring wild-type EGFR at 30 and 60 uM by immunoblotting analysis; format: functional, cell-based
NCI-H460 [17] = assay: Increase in PARP level in human NCI-H460 cells harboring wild-type EGFR at 30 and 60 uM by immunoblotting analysis; format: functional, cell-based
NCI-H1975 [18] = assay: Effect on ROS level in human NCI-H1975 cells harboring EGFR-mutant at 60 uM; format: functional, cell-based
NCI-H1650 [19] = assay: Effect on ROS level in human NCI-H1650 cells harboring EGFR-mutant at 60 uM; format: functional, cell-based
NCI-H1975 [20] = assay: Induction of apoptosis in human NCI-H1975 cells harboring EGFR-mutant assessed as cell death at 60 uM in presence of NAC; format: functional, cell-based
NCI-H1650 [21] = assay: Induction of apoptosis in human NCI-H1650 cells harboring EGFR-mutant assessed as cell death at 60 uM in presence of NAC; format: functional, cell-based
NCI-H1975 [22] = assay: Decrease in EGFR level in human NCI-H1975 cells harboring EGFR-mutant measured after 24 hrs by immunoblotting analysis; format: functional, cell-based
NCI-H1975 [23] = assay: Inhibition of EGFR mutant-mediated AKT phosphorylation in human NCI-H1975 cells harboring EGFR-mutant at 30 and 60 uM measured after 24 hrs by immunoblotting analysis; format: cell-based
NCI-H1975 [24] = assay: Inhibition of EGFR mutant-mediated ERK phosphorylation in human NCI-H1975 cells harboring EGFR-mutant at 30 and 60 uM measured after 24 hrs by immunoblotting analysis; format: cell-based
NCI-H1650 [25] = assay: Decrease in EGFR level in human NCI-H1650 cells harboring EGFR-mutant at 30 and 60 uM by […]; format: functional, cell-based
NCI-H1650 [26] = assay: Inhibition of EGFR mutant-mediated ERK phosphorylation in human NCI-H1650 cells harboring EGFR-mutant measured after 24 hrs by immunoblotting analysis; format: cell-based
A549 [27] = assay: Decrease in EGFR level in human A549 cells harboring wild-type EGFR at 30 and 60 uM measured after 24 hrs by immunoblotting analysis; format: functional, cell-based
[28] = target: Epidermal growth factor receptor (Homo sapiens) (UniProt P00533); assay: Inhibition of EGFR-mediated AKT phosphorylation in human A549 cells harboring wild-type EGFR at 30 and 60 uM measured after 24 hrs by immunoblotting analysis; format: cell-based
[29] = target: Epidermal growth factor receptor (Homo sapiens) (UniProt P00533); assay: Inhibition of EGFR-mediated ERK phosphorylation in human A549 cells harboring wild-type EGFR at 30 and 60 uM measured after 24 hrs by immunoblotting analysis; format: cell-based
NCI-H460 [30] = assay: Decrease in EGFR level in human NCI-H460 cells harboring wild-type EGFR at 30 and 60 uM measured after 24 hrs by immunoblotting analysis; format: functional, cell-based
[31] = target: Epidermal growth factor receptor (Homo sapiens) (UniProt P00533); assay: Inhibition of EGFR-mediated AKT phosphorylation in human NCI-H460 cells harboring wild-type EGFR at 30 and 60 uM measured after 24 hrs by immunoblotting analysis; format: cell-based
[32] = target: Epidermal growth factor receptor (Homo sapiens) (UniProt P00533); assay: Inhibition of EGFR-mediated ERK phosphorylation in human NCI-H460 cells harboring wild-type EGFR at 30 and 60 uM measured after 24 hrs by immunoblotting analysis; format: cell-based
NCI-H1975 [33] = assay: Effect on EGFR mRNA levels in human NCI-H1975 cells harboring EGFR-mutant at 30 uM by quantitative RT-PCR method; format: functional, cell-based
NCI-H1975 [34] = assay: Induction of EGFR turnover in human NCI-H1975 cells harboring EGFR-mutant at 60 uM measured after 24 hrs in presence of proteosome inhibitor bortezomib by immunoblotting analysis; format: functional, cell-based
PC-9 [35] = assay: Antiproliferative activity against human gefitinib-resistant PC9 cells harboring EGFR T790M mutant assessed as cell viability measured after 24 hrs; format: functional, cell-based
PC-9 [36] = assay: Antiproliferative activity against human erlotinib-resistant PC9 cells harboring EGFR T790M mutant assessed as cell viability measured after 24 hrs; format: functional, cell-based
PC-9 [37] = assay: Induction of apoptosis in human gefitinib-resistant PC9 cells harboring EGFR T790M mutant assessed as cell death at 30 and 60 uM measured after 24 hrs by Annexin-V/PI staining based analysis; format: functional
PC-9 [38] = assay: Induction of apoptosis in human erlotinib-resistant PC9 cells harboring EGFR T790M mutant assessed as cell death at 30 and 60 uM measured after 24 hrs by Annexin-V/PI staining based analysis; format: functional
PC-9 [39] = assay: Decrease in EGFR level in human gefitinib-resistant PC9 cells harboring EGFR T790M mutant at 30 and 60 uM measured after 24 hrs by immunoblotting analysis; format: functional, cell-based
PC-9 [40] = assay: Decrease in EGFR level in human erlotinib-resistant PC9 cells harboring EGFR T790M mutant at 30 and 60 uM measured after 24 hrs by immunoblotting analysis; format: functional, cell-based
PC-9 [41] = assay: Increase in cleaved caspase3 level in human gefitinib-resistant PC9 cells harboring EGFR T790M mutant at 30 and 60 uM by immunoblotting analysis; format: functional, cell-based
PC-9 [42] = assay: Increase in cleaved caspase3 level in human erlotinib-resistant PC9 cells harboring EGFR T790M mutant at 30 and 60 uM by immunoblotting analysis; format: functional, cell-based
PC-9 [43] = assay: Increase in PARP level in human gefitinib-resistant PC9 cells harboring EGFR T790M mutant at 30 and 60 uM by immunoblotting analysis; format: functional, cell-based
PC-9 [44] = assay: Increase in PARP level in human erlotinib-resistant PC9 cells harboring EGFR T790M mutant at 30 and 60 uM by immunoblotting analysis; format: functional, cell-based
NCI-H1975 [45] = assay: Induction of EGFR turnover in human NCI-H1975 cells harboring EGFR-mutant assessed as receptor half life […] at 60 uM in presence of cycloheximide by immunoblotting analysis; format: functional, cell-based

Sequence of Epidermal growth factor receptor (Homo sapiens) (P00533 whole entry): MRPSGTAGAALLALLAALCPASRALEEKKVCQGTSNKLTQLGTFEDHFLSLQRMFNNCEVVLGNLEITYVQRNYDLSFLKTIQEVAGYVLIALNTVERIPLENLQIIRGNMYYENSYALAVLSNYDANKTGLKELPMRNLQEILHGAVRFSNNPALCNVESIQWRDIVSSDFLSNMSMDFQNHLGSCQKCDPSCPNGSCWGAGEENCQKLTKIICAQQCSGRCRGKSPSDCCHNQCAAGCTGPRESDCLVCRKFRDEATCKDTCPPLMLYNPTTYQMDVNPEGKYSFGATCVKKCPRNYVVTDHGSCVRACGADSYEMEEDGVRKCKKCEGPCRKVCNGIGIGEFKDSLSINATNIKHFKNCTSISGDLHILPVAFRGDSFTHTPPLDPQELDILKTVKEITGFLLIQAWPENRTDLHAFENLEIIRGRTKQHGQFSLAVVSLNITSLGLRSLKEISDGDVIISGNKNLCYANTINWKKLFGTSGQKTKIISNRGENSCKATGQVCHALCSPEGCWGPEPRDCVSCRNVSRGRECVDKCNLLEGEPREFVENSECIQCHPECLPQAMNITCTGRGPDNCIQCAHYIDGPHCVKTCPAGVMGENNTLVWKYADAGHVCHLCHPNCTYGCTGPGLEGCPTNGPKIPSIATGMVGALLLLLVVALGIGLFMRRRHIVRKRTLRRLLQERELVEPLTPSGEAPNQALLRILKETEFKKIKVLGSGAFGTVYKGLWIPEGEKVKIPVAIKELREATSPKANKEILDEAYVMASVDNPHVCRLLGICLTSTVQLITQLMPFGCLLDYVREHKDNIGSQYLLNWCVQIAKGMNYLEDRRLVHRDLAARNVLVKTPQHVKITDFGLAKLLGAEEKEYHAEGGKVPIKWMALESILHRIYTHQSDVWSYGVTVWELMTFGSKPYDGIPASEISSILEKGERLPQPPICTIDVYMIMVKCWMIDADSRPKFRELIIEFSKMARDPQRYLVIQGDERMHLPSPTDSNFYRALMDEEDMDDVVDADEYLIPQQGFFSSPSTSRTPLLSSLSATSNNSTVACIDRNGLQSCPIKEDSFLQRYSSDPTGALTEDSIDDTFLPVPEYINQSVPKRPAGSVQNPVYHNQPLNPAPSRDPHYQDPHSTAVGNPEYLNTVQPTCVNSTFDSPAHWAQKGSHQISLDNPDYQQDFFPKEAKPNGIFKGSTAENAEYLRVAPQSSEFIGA

For `O=C(O)c1cc(O)c(O)c(O)c1`, the inhibition (NCI-H1650 [1]) was “Active”, the Activity (NCI-H1975 [2]) was “Dose-dependent effect” and the Activity (NCI-H1650 [3]) was “Dose-dependent effect”. The Activity (A549 [4]) was “inactive”, the Activity (NCI-H460 [5]) was “inactive” and the Activity (NCI-H1975 [6]) was “Dose-dependent effect”. The Activity (NCI-H1650 [7]) was “Dose-dependent effect”, the Activity (A549 [8]) was “Active” and the Activity (NCI-H460 [9]) was “Active”. For the same molecule, the Activity (NCI-H1975 [10]) was “Active”, the Activity (NCI-H1650 [11]) was “Active” and the Activity (A549 [12]) was “inactive”. The Activity (NCI-H460 [13]) was “inactive”, the Activity (NCI-H1975 [14]) was “Active” and the Activity (NCI-H1650 [15]) was “Active”. For the same molecule, the Activity (A549 [16]) was “inactive”, the Activity (NCI-H460 [17]) was “inactive” and the Activity (NCI-H1975 [18]) was “inactive”. The Activity (NCI-H1650 [19]) was “inactive”, the Activity (NCI-H1975 [20]) was “Active” and the Activity (NCI-H1650 [21]) was “Active”. The inhibition (NCI-H1975 [22]) was “Dose-dependent effect”, the inhibition (NCI-H1975 [23]) was “Active” and the inhibition (NCI-H1975 [24]) was “Active”. The inhibition (NCI-H1650 [25]) was “Dose-dependent effect”, the inhibition (NCI-H1650 [26]) was “Active” and the inhibition (A549 [27]) was “inactive”. For the same molecule, the inhibition [28] was “inactive”, the inhibition [29] was “inactive” and the inhibition (NCI-H460 [30]) was “inactive”. The inhibition [31] was “inactive”, the inhibition [32] was “inactive” and the Activity (NCI-H1975 [33]) was “inactive”. For the same molecule, the Activity (NCI-H1975 [34]) was “inactive”, the Activity (PC-9 [35]) was “Dose-dependent effect” and the Activity (PC-9 [36]) was “Dose-dependent effect”. For the same molecule, the Activity (PC-9 [37]) was “Active”, the Activity (PC-9 [38]) was “Active” and the Activity (PC-9 [39]) was “Active”. For the same molecule, the Activity (PC-9 [40]) was “Active”, the Activity (PC-9 [41]) was “Active” and the Activity (PC-9 [42]) was “Active”. For the same molecule, the Activity (PC-9 [43]) was “Active”, the Activity (PC-9 [44]) was “Active” and the Activity (NCI-H1975 [45]) was “inactive”.
